Patent US4185096A, “Novel derivatives of pepstatin, their preparation and compositions containing them” (Agence Nationale de Valorisation de la Recherche (ANVAR), priority 1977, dated 1980)
Non-standard residues stand in square brackets, D forms with d. Residues, ends and D or L forms follow the SMILES beside them. *: point of attachment. Sta = CC(C)C[C@H](N)[C@@H](O)CC(=O)O; Isovaleryl = CC(C)CC(=O)*

Columns and labels:
hypertensive rats = assay: blood pressure in rats with renal hypertension (aortic ligature between the renal arteries); assay type: in vivo, rat; conditions: for decrease of blood pressure: intravenous 350 nmoles, thirteen Saralasin-responder rats, pooled value (2 rats methyl ester, 11 rats arginine salt)
Description: The experimental model of renal hypertension developped in rats by ROJO-ORTEGA and GENEST [Can. J.Phys. Pharm. 46 883-885 (1968)] was used.
A complete ligature of the aorta between the renal arteries was performed in twenty male Sprague-Dawley rats, weighing 300 g. They were investigated between 5 and 10 days after surgery. The blood pressure was measured in the conscious unrestrained rats, through a carotid cannula inserted 24 hours before measurements were made.
The maximal decrease in blood pressure induced by an injection of "Saralasin" was compared [Sar 1, Ala-8 Angiotensin II] in the same animals, to the maximum fall in blood pressure induced by the soluble derivatives of pepstatin according to the invention.
In these thirteen rats, the average blood pressure decrease was 44.5±8.5 mmHg. The intravenous injection of 350 nmoles of pepstatinyl-Arginine-O-Methyl Ester (2 rats), or the Arginine salt of Pepstatinyl (11 rats) decreased blood pressure by 48.3±8.2 mmHg. The maximal fall in blood pressure was obtained 5 minutes after Saralasin, and 6 minutes after soluble pepstatin. Blood pressure returned to the control level 10 minutes after the injection of both inhibitors.

hog renin = assay: in vitro inhibition of hog renin on synthetic N-acetylated tetradecapeptide substrate, fluorimetry, Dixon plot; assay type: biochemical; conditions: 10 milli-Goldblatt units hog renin, pH 6, one hour, 37° C., Dixon representation; read-out: inhibition constant
Description: 10 milli-Goldblatt units of hog renin, from the same source as above, were incubated at pH 6 for one hour at 37° C. in the presence of a synthetic substrate constituted by a N-acetylated renin tetradecapeptide [GALEN et al. Biochem. Biophys. Acta, 523, 485-493 (1978)]. The tetrapeptide quantity produced per hour of incubation was measured by fluorimetry. Three different concentrations of N-acetylated tetradecapeptide were used, that is to say 2.3, 4.6 and 9.3 nmoles with increasing amounts of pepstatin or methyl ester of pepstatin-[…].25, 0.50 and 0.75 10^-6 mole/l).

SMILES	rats with a blood pressure fall of 10 mmHg and more (hypertensive rats; among 20 hypertensive rats, intravenous 140 nmoles) [rats]	time of maximal fall in blood pressure after injection (hypertensive rats; intravenous 140 nmoles) [min]	time of return of blood pressure to the control level after injection (hypertensive rats; intravenous 140 nmoles) [min]	average blood pressure decrease (hypertensive rats; intravenous 140 nmoles, thirteen responder rats) [mmHg]	Ki (hog renin) [µM]	decrease of blood pressure (hypertensive rats) [mmHg]
CNCC(=O)N[C@@H](CCCN=C(N)N)C(=O)N[C@H](C(=O)N[C@@H](Cc1ccc(O)cc1)C(=O)N[C@H](C(=O)N[C@@H](Cc1cnc[nH]1)C(=O)N1CCC[C@H]1C(=O)N[C@@H](C)C(=O)O)C(C)C)C(C)C [Saralasin, Sar 1, Ala-8 Angiotensin II]	13	5	10	44.5±8.5		
COC(=O)[C@H](CCCNC(=N)N)NC(=O)C[C@H](O)[C@H](CC(C)C)NC(=O)[C@H](C)NC(=O)C[C@H](O)[C@H](CC(C)C)NC(=O)[C@@H](NC(=O)[C@@H](NC(=O)CC(C)C)C(C)C)C(C)C [methyl ester of pepstatin-arginine] (Isovaleryl-VV[Sta]A[Sta]R-OMe)					0.315	48.3±8.2
CC(C)CC(=O)N[C@H](C(=O)N[C@H](C(=O)N[C@@H](CC(C)C)[C@@H](O)CC(=O)N[C@@H](C)C(=O)N[C@@H](CC(C)C)[C@@H](O)CC(=O)N[C@@H](CCCNC(=N)N)C(=O)O)C(C)C)C(C)C [pepstatin-arginine] (Isovaleryl-VV[Sta]A[Sta]R-OH)						48.3±8.2
